Data on eight compounds can be found in patent publication US8937067B2, “Activators of human pyruvate kinase” (The United States of America, as represented by the …, priority 2008, dated 2015).

Molecules are shown by their SMILES.

Test [1] has as its target T1, hPK-M2 (Homo sapiens, UniProt P14618). As to the kind of experiment: Luminescent pyruvate kinase-luciferase coupled assay (KinaseGlo). The conditions noted are these: for AC50: luminescent pyruvate kinase-luciferase coupled assay (KinaseGlo), tables, read-out: hPK, M2 AC50. In kind it is biochemical. The essentials: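 Activation assay with 0.1 mM ADP and 0.5 mM PEP in 50 mM imidazole pH 7.2, 50 mM KCl, 7 mM MgCl2, 0.01% tween 20, 0.05% BSA; 1 h at r.t. ATP produced was read by luciferase luminescence. AC50 values were normalized to DMSO (uninhibited enzyme) and no-enzyme controls.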
For orientation: Kinase-Glo measures the ATP left after a reaction by luminescence.

Test [2] has as its target T1, hPK-M2. As to the kind of experiment: Fluorescent pyruvate kinase-lactate dehydrogenase (LDH) coupled secondary assay. Conditions: for LDH hPK, M2 Max. Res.: % activation at 57 μM of compound; for AC50: tables, read-out: LDH hPK, M2 AC50. In kind it is biochemical. As for the experimental part: Fluorescent Pyruvate Kinase-Lactate Dehydrogenase Coupled Secondary Assay.
Plates were immediately placed in ViewLux (Perkin Elmer) and NADH fluorescence was determined at 30 second exposure intervals for between 3 and 6 minutes. Data were normalized to the uninhibited and EC100 activation using known activators such as fructose-1,6-bis-phosphate. […] Data was collected on the Perkin Elmer Viewlux.

Where [3] appears, read: KinaseGlo, % activation at 57 μM of compound.

T1 sequence (P14618 whole entry): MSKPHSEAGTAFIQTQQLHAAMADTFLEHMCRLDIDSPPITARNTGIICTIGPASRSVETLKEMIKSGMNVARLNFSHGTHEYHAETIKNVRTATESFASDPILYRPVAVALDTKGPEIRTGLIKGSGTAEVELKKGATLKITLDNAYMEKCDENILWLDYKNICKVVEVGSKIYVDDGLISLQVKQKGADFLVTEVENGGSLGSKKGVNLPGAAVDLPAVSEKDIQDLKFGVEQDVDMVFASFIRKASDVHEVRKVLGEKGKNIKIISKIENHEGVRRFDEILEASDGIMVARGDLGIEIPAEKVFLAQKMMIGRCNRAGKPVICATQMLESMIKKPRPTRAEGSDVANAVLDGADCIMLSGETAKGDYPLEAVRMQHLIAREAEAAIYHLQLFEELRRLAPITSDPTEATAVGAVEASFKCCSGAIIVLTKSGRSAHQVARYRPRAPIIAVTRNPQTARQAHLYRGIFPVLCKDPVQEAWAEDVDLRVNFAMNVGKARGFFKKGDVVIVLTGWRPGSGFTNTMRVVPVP

In general, AC50 refers to the concentration giving half of the maximal activity seen. Take `COc1cc(F)c(S(=O)(=O)N2CCN(S(=O)(=O)c3ccc(N)cc3)CC2)c(F)c1` [Compound 139]: the “hPK, M2 Max. Res.” value on hPK-M2 [1] (setting [3]) was 92.46%. Besides, on hPK-M2 [1], the AC50 was determined as 0.13 µM. Moreover, on hPK-M2 [2], the “LDH hPK, M2 Max. Res.” value stood at 166.00% and the AC50 is 0.183 µM.
Turning to `O=S(=O)(c1cccc(O)c1)N1CCN(S(=O)(=O)c2c(F)cccc2F)CC1` [Compound 140], the “hPK, M2 Max. Res.” value at hPK-M2 [1] (setting [3]) was 89.61%. In addition, the AC50 on hPK-M2 [1] was 0.183 µM. Also, on hPK-M2 [2], the “LDH hPK, M2 Max. Res.” value is reported as 148.41% and the AC50 turned out to be 0.183 µM.
`COc1cc(F)c(S(=O)(=O)N2CCCN(S(=O)(=O)c3cccc(N)c3)CC2)c(F)c1` [Compound 141]: at hPK-M2 [1] (setting [3]), the “hPK, M2 Max. Res.” value was 93.20%. In addition, the AC50 was 0.206 µM on hPK-M2 [1] and 0.146 µM at hPK-M2 [2]. For the same compound, on hPK-M2 [2], the “LDH hPK, M2 Max. Res.” value was found to be 157.96%.
As for `COc1cc(F)c(S(=O)(=O)N2CCCN(S(=O)(=O)c3ccc(N)cc3)CC2)c(F)c1` [Compound 143], at hPK-M2 [1] (setting [3]), the “hPK, M2 Max. Res.” value was found to be 89.36%. Besides, the AC50 on hPK-M2 [1] turned out to be 1.3 µM. For the same compound, at hPK-M2 [2], the “LDH hPK, M2 Max. Res.” value amounted to 150.25% and the half-maximal activity concentration (AC50) was found to be 1.3 µM.
On to `COc1cc(F)c(S(=O)(=O)N2CCN(S(=O)(=O)c3cccs3)CC2)c(F)c1` [Compound 144], for which the “hPK, M2 Max. Res.” value at hPK-M2 [1] (setting [3]) came out at 95.08%. Further, the AC50 amounted to 0.0366 µM at hPK-M2 [1] and 0.0517 µM on hPK-M2 [2]. The “LDH hPK, M2 Max. Res.” value at hPK-M2 [2] was 125.28%.
For the compound `COc1cc(F)c(S(=O)(=O)N2CCN(S(=O)(=O)c3ccco3)CC2)c(F)c1` [Compound 145], at hPK-M2 [1] (setting [3]), the “hPK, M2 Max. Res.” value was 82.49%. Besides, the AC50 at hPK-M2 [1] came to 0.183 µM. Further, at hPK-M2 [2], the “LDH hPK, M2 Max. Res.” value is recorded as 106.13% and the AC50 was 0.116 µM.
As to `Cc1ccc(N[S+](=O)([O-])c2ccc3c(c2)CCC(=O)N3)cc1C` [Compound 150], the activation at 57 µM on hPK-M2 [1] (KinaseGlo, % activation at 57 μM of compound, read-out: hPK, M2 Max. Res.) was found to be 84%. On hPK-M2 [1], the AC50 is 0.163 µM. Moreover, at hPK-M2 [2], the “LDH hPK, M2 Max. Res.” value stood at 153.98% and the AC50 was 0.146 µM.
For the compound `Nc1ccc(S(=O)(=O)N2CCN(S(=O)(=O)c3ccc4c(c3)OCCO4)CC2)cc1` [Compound 151], the “hPK, M2 Max. Res.” value on hPK-M2 [1] (setting [3]) is 91.84%. Also, the AC50 at hPK-M2 [1] is 0.411 µM; on hPK-M2 [2] it was 0.366 µM. Moreover, at hPK-M2 [2], the “LDH hPK, M2 Max. Res.” value is on record as 174.46%.
